Among the data in patent publication US11420966B2 (ACLARIS THERAPEUTICS, INC., priority 2019, dated 2022) are IC50 values, retold here.

In assay [1] the target is JAK1 (Homo sapiens (Human), UniProt P23458). The assay can be described thus: JAK1 enzyme activity assay (Thermo Fisher SelectScreen, Z-lyte). It is filed as biochemical. The settings on record: read-out: JAK1 Inhibition IC50. The method, then: (§1) JAK1, JAK2, JAK3, and Tyk-2 Enzyme Activity Assays
(§2) The inhibitory potency of candidate compounds of JAK1, JAK2, and Tyk-2 was done at Thermo Fisher Scientific in their Selectscreen using a Z-lyte assay. Following are the assay details for each enzyme.
JAK: The 2×JAK-enzyme/Tyr 06 mixture is prepared in 50 mM HEPES pH 6.5, 0.01% BRIJ-35, 10 mM MgCl2, 1 mM EGTA, 0.02% NaN3. The final 10 μL of the Kinase Reaction consists of 21.2-91.5 ng JAK and 2 M Tyr 06 in 50 mM HEPES pH 7.0, 0.01% BRIJ-35, 10 mM MgCl2, 1 mM EGTA, 0.01% NaN3. After the one hour Kinase Reaction incubation, 5 μL of a 1:128 dilution of Development Reagent is added.
(§3) Data reduction for JAK1, JAK2 and TYK2 is done the same, independent of the enzyme run. In summary, background signal is defined in the absence of enzyme and uninhibited signal is defined in the presence of vehicle (2% DMSO) alone. Compounds were evaluated in an 11 point dose-response ranging from […] to 0.34 nM. IC50 values of compounds are determined using a 4 parameter logistical fit of emission ratio as a function of the concentration of compound.

Assay [2] deals with JAK2 (Homo sapiens (Human), UniProt O60674). The assay can be described thus: JAK2 enzyme activity assay (Thermo Fisher SelectScreen, Z-lyte). It is filed as biochemical. The settings on record: read-out: JAK2 Inhibition IC50. The method, then:
as §1, §2
JAK2: The 2×JAK2/Tyr 06 mixture is prepared in 50 mM HEPES pH 7.5, 0.01% BRIJ-35, 10 mM MgCl2, 1 mM EGTA. The final 10 μL Kinase Reaction consists of 0.12-0.5 ng JAK2 and 2 M Tyr 06 in 50 mM HEPES pH 7.5, 0.01% BRIJ-35, 10 mM MgCl2, 1 mM EGTA. After the one hour Kinase Reaction incubation, 5 μL of a 1:128 dilution of Development Reagent A is added.
as §3

Assay [3] has as its target JAK3 (a.a. 781-1124) (Homo sapiens (Human), UniProt P52333). The assay can be described thus: JAK3 enzyme activity assay (SRCtide phosphorylation, Caliper). The assay is classed as biochemical. The settings on record: 1 uM ATP; read-out: JAK3 Inhibition IC50. The method, then:
as §1
Kinase reactions were run in a 384-well Greiner plate with 2% final DMSO concentration under the buffer conditions of 20 mM HEPES, pH 7.5, 10 mM MgCl2, 0.01% BSA, and 0.0005% Tween-20. The kinase reaction components were 2.5 nM JAK3, 1 μM SRCtide peptide and 1 uM ATP. Examples were tested in dose-response starting at 2 M (11 concentrations, 3-fold serial dilution, duplicate reactions). The reactions were incubated at room temperature for 40 minutes, then stopped by adding a 1:1 volume of 30 mM EDTA in 20 mM HEPES, pH 7.5 (15 mM EDTA final). After the reaction was stopped, the phosphorylated and unphosphorylated peptides were separated and quantified using a Caliper LC3000/EZ-Reader system and HTS Well Analyzer Software (Caliper, A PerkinElmer Company, Hopkinton, Mass.). GraFit (Erithacus Software Ltd., Horley, U.K.) was used to calculate inhibitor potency by fitting dose-response data to the 4-parameter logistical IC50 equation.

Assay [4] concerns the target Tyk-2 (Homo sapiens (Human), UniProt P29597). The assay can be described thus: Tyk-2 enzyme activity assay (Thermo Fisher SelectScreen, Z-lyte). Conditions: read-out: Tyk-2 Inhibition IC50. It is filed as biochemical. The method, then:
as §1, §2
TYK2: The 2×TYK2/Tyr 03 mixture is prepared in 50 mM HEPES pH 6.5, 0.01% BRIJ-35, 10 mM MgCl2, 1 mM EGTA, 0.02% NaN3. The final 10 μL Kinase Reaction consists of 3.75-15 ng TYK2 and 2 M Tyr 03 in 50 mM HEPES pH 7.0, 0.01% BRIJ-35, 10 mM MgCl2, 1 mM EGTA, 0.01% NaN3. After the one hour KinaseReaction incubation, 5 μL of a 1:4096 dilution of Development Reagent A is added.
as §3

The test system of assay [5] is IL-2 stimulated STAT5 phosphorylation on Tyr694 (JAK1/3). The assay can be described thus: JAK1/3 cellular target modulation: IL-2 stimulated phospho-STAT5 in PBMC. The assay is classed as cell-based. The settings on record: human PBMC, IL-2 25 ng/ml; read-out: IL2-STAT5 IC50. An excerpt:
(§4) JAK Cellular Target Modulation Assays
(§5) Target modulation was based upon the ability of a compound to inhibit JAK isoform specific phosphorylation of selected substrates. IL-2 stimulated STAT5 phosphorylation on Tyr694 was used to assess JAK1/3 compound selectivity. GM-CSF stimulated STAT5 phosphorylation on Tyr694 was used to assess JAK2 compound selectivity. IFNγ stimulated STAT1 phosphorylation on Tyr701 was used to assess JAK1/2 compound selectivity. IL-12 stimulated STAT4 phosphorylation on Tyr693 was used to assess JAK2/TYK2 compound selectivity. For all four assays, human PBMC from frozen stocks were thawed, pelleted, resuspended in complete media (90% RPMI, 10% heat inactivated FBS, 10 mM HEPES, 47 μM 2-ME, pen/strep) and placed in wells of a 96 well V-bottom plate at 200,000 per well in 120 μl complete media. Compounds were added as 15 μl per well of 10× working stock solutions in complete media with 1% DMSO (or medium with 1% DMSO for controls) and placed on a plate shaker in a 37° C. incubator with 5% CO2 for 1 hour with gentle shaking (setting of 3). Stimulation used the addition of soluble cytokines. For the JAK1/3 phospho-STAT5 assay, 15 μl of 10× working stock recombinant human IL-2 was added to a final concentration of 25 ng/ml. For the JAK2 phospho-STAT5 assay, 15 μl of 10× working stock recombinant human GM-CSF was added to a final concentration of 5 ng/ml. For the JAK1/2 phospho-STAT1 assay, 15 μl of 10× working stock of recombinant human IFNγ was added to a final concentration of 10 ng/ml. For the JAK2/TYK2 phospho-STAT4 assay, 15 μl of 10× working stock of recombinant human IL-12 was added to a final concentration of 1.7 ng/ml. Plates were then placed back on the plate shaker in the incubator for an additional 5, 5, 10, and 25 minutes respectively upon which the plates were removed from the incubator, sealed with a plate sealer and the cells pelleted at 400×g for 5 minutes. After pelleting, the media was removed by aspiration and the cells were lysed in assay specific cell lysis buffer. The levels of phospho-STATS were determined using a Phospho (Tyr694) STAT5a,b Whole Cell Lysate kit from Meso Scale Discovery. Levels of phospho-STAT1 were determined using a CST-PathScan Phospho-STAT1 (Tyr701) Sandwich ELISA kit. Levels of phospho-STAT4 were determined using a Phospho-STAT4 (Tyr693) Whole Cell Lysate kit from Meso Scale Discovery.

Assay [6] concerns IFNγ stimulated STAT1 phosphorylation on Tyr701 (JAK1/2). Briefly: JAK1/2 cellular target modulation: IFNγ stimulated phospho-STAT1 in PBMC. It is filed as cell-based. The settings on record: human PBMC, IFNγ 10 ng/ml; read-out: Infγ-STAT1 IC50.
Description: as §4, §5

By IC50 is commonly meant the concentration needed to halve the response being measured.

Sequence of JAK3 (a.a. 781-1124) (P52333 781-1124): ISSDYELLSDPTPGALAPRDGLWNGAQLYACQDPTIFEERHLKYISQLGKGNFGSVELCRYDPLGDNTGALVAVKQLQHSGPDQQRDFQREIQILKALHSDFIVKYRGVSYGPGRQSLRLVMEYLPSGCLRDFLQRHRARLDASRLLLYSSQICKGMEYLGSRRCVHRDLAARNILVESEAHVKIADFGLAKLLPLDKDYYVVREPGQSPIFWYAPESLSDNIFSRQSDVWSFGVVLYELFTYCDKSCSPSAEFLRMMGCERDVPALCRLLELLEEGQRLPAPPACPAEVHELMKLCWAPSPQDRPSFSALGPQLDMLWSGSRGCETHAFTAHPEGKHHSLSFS
Sequence of JAK1 (P23458 whole entry): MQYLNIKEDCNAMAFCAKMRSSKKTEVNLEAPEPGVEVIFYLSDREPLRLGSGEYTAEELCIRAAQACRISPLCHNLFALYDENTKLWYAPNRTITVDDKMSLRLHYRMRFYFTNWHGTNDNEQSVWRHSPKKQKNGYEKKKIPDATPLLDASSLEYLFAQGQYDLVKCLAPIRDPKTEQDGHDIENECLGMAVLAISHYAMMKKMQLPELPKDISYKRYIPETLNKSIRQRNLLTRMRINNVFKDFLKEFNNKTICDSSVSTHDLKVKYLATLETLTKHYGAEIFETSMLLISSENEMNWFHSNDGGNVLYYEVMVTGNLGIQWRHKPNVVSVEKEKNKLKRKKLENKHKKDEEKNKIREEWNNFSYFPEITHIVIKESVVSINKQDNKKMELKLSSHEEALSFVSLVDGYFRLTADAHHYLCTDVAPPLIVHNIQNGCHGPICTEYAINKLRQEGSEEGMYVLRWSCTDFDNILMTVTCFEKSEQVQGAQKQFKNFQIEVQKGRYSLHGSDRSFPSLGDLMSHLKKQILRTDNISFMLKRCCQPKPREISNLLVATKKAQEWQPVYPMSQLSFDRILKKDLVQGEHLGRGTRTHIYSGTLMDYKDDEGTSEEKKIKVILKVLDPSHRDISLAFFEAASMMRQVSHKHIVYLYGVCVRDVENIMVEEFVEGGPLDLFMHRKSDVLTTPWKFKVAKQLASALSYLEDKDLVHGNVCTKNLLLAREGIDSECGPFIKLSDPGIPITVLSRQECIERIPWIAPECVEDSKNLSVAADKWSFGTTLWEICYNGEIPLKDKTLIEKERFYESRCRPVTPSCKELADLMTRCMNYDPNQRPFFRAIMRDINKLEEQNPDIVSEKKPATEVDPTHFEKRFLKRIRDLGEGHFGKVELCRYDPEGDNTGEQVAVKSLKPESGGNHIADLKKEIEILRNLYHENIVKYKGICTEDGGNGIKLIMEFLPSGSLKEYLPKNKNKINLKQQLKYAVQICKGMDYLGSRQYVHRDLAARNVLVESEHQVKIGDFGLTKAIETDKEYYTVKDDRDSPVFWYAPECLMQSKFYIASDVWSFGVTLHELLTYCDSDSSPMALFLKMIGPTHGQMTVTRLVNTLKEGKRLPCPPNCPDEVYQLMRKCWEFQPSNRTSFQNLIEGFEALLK
Sequence of JAK2 (O60674 whole entry): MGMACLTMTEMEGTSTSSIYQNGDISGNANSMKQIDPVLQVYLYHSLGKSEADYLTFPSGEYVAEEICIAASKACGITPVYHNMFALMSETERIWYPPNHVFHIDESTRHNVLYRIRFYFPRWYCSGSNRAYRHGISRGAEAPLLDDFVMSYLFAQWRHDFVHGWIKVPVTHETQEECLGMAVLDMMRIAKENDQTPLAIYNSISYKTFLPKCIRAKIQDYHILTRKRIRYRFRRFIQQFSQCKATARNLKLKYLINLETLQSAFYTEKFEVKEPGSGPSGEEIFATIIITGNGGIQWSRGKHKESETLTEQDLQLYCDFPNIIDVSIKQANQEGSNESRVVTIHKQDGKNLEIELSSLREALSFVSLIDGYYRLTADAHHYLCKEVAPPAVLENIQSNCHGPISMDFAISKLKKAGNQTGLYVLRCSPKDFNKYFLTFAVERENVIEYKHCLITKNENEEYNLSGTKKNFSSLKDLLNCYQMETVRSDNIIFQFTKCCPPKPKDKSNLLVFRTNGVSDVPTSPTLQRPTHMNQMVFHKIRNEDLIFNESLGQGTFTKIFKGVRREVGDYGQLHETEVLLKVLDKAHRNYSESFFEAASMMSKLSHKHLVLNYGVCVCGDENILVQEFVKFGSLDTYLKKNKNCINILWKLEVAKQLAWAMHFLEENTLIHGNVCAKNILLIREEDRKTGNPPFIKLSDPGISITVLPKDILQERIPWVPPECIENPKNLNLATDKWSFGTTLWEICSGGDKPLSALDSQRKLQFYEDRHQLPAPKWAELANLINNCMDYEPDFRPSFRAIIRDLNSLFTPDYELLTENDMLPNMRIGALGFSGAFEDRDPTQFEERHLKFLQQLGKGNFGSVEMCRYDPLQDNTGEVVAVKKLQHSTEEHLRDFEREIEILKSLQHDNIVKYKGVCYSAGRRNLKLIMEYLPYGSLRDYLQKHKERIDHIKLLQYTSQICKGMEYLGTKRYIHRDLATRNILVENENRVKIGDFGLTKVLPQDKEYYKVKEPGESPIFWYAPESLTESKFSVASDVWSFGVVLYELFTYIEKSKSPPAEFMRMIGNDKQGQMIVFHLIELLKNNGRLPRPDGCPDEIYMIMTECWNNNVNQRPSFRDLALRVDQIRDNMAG
Sequence of Tyk-2 (P29597 whole entry): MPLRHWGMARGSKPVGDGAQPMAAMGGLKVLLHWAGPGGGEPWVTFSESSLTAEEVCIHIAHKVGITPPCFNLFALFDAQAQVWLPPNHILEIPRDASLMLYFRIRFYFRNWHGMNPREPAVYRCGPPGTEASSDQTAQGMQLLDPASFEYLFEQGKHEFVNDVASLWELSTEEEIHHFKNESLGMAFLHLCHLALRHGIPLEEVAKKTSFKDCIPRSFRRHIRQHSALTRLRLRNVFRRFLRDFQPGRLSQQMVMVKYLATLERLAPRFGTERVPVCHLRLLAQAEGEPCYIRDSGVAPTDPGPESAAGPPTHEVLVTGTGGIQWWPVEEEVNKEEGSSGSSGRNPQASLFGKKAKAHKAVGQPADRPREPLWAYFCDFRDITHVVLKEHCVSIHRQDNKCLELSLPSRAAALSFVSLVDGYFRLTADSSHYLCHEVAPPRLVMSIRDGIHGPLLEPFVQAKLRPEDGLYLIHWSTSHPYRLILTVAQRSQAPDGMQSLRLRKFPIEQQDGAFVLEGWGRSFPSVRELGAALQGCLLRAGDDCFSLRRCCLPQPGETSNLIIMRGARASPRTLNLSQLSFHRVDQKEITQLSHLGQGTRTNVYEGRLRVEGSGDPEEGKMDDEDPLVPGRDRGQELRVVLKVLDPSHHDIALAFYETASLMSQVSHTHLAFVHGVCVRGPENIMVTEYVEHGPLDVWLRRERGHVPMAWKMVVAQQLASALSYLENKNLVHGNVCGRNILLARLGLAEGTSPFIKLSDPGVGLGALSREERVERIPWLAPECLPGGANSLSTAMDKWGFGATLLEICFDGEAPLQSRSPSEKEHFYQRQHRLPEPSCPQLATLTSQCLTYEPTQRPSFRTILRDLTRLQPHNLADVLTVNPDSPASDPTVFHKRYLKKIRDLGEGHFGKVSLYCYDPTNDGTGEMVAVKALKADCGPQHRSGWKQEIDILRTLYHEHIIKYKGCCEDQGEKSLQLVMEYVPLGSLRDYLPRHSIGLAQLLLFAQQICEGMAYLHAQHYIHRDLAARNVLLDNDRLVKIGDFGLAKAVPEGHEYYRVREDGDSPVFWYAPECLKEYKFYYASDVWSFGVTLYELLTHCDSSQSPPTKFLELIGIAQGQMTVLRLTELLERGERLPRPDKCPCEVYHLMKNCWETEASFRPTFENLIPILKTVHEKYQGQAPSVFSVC

With `CNC(=O)c1cnc(-c2cnc3[nH]ccc3c2N[C@@H]2CCCN(C(=O)CC#N)C2)o1` [Example 39, (R)-2-(4-((1-(2-cyanoacetyl)piperidin-3-yl)amino)-1H-pyrrolo[2,3-b]pyridin-5-yl)-N-methyloxazole-5-carboxamide], the IC50 in assay [1] was 10 to 100 nM; in assay [2] it was no more than 10 nM; in assay [3], no more than 10 nM; in assay [4] it was 10 to 100 nM; in assay [5] it was greater than 1000 nM; in assay [6], greater than 1000 nM.

Consider `N#CCC(=O)N1CCC[C@@H](Nc2c(-c3nc(C(N)=O)co3)cnc3[nH]ccc23)C1` [Example 14, (R)-2-(4-((1-(2-cyanoacetyl)piperidin-3-yl)amino)-1H-pyrrolo[2,3-b]pyridin-5-yl)oxazole-4-carboxamide], for which the IC50 in assay [1] was no more than 10 nM; in assay [2] it was 10 to 100 nM; in assay [3] it was no more than 10 nM; in assay [4] it was 10 to 100 nM; in assay [5] it was 100 to 1000 nM; in assay [6], greater than 1000 nM.

As for `N#CCC(=O)N1CCC[C@@H](Nc2c(C#N)cnc3[nH]ccc23)C1` [Example 25, (R)-4-((1-(2-cyanoacetyl)piperidin-3-yl)amino)-1H-pyrrolo[2,3-b]pyridine-5-carbonitrile], the IC50 in assay [1] was no more than 10 nM; in assay [2] it was 10 to 100 nM; in assay [3] it was 10 to 100 nM; in assay [4], 10 to 100 nM; in assay [5] it was no more than 100 nM; in assay [6], 100 to 1000 nM.

Take `CNC(=O)c1cnc(-c2cnc3[nH]ccc3c2N[C@@H]2CCCN(C(=O)CC#N)C2)s1` [Example 53, (R)-2-(4-((1-(2-cyanoacetyl)piperidin-3-yl)amino)-1H-pyrrolo[2,3-b]pyridin-5-yl)-N-methylthiazole-5-carboxamide]: the IC50 in assay [1] is no more than 10 nM; in assay [2] it was no more than 10 nM; in assay [3], no more than 10 nM; in assay [4], no more than 10 nM; in assay [5], no more than 100 nM; in assay [6], no more than 100 nM.

Turning to `O[C@H]1CC[C@@H](Nc2c(-c3ccccn3)cnc3[nH]ccc23)C1` [Example 12, (1S,3R)-3-((5-(pyridin-2-yl)-1H-pyrrolo[2,3-b]pyridin-4-yl)amino)cyclopentan-1-ol], the IC50 was 100 to 1000 nM in assay [1]; 100 to 1000 nM in assay [2]; 10 to 100 nM in assay [3]; 100 to 1000 nM in assay [4]; 100 to 1000 nM in assay [5]; greater than 1000 nM in assay [6].

Turning to `Cc1ncc(-c2cnc3[nH]ccc3c2N[C@@H]2CCCN(C(=O)CC#N)C2)s1` [Example 3, (R)-3-(3-((5-(2-methylthiazol-5-yl)-1H-pyrrolo[2,3-b]pyridin-4-yl)amino)piperidin-1-yl)-3-oxopropanenitrile], the IC50 was 10 to 100 nM in assay [1]; 100 to 1000 nM in assay [2]; 10 to 100 nM in assay [3]; 100 to 1000 nM in assay [4]; 100 to 1000 nM in assay [5]; greater than 1000 nM in assay [6].

As for `CS(=O)(=O)c1cccc(-c2cnc3[nH]ccc3c2N[C@@H]2CCCN(C(=O)CC#N)C2)c1` [Example 59, (R)-3-(3-((5-(3-(methylsulfonyl)phenyl)-1H-pyrrolo[2,3-b]pyridin-4-yl)amino)piperidin-1-yl)-3-oxopropanenitrile], the IC50 in assay [1] was no more than 10 nM; in assay [2], 100 to 1000 nM; in assay [3] it was 100 to 1000 nM; in assay [4] it was greater than 1000 nM; in assay [5], 100 to 1000 nM; in assay [6], greater than 1000 nM.

As for `N#CCC(=O)N1CCC[C@@H](Nc2c(-c3nnc[nH]3)cnc3[nH]ccc23)C1` [Example 11, (R)-3-(3-((5-(4H-1,2,4-triazol-3-yl)-1H-pyrrolo[2,3-b]pyridin-4-yl)amino)piperidin-1-yl)-3-oxopropanenitrile], the IC50 in assay [1] was 10 to 100 nM; in assay [2], 10 to 100 nM; in assay [3], 10 to 100 nM; in assay [4], 100 to 1000 nM; in assay [5] it was greater than 1000 nM; in assay [6], greater than 1000 nM.
